Laboratory results: patent US8143254B2, “Methods for modulating ion channels” (Cornell Research Foundation, Inc., priority 2005, dated 2012)

Legend:
Kv3.4 = test: TEVC of X. laevis oocytes expressing Kv3.4; format: cell-based; conditions: for mean inhibition at 0 mV relative to +50 mV: Kv3.4, voltage dependence of block
Description: Kv2.1 mutants were constructed using the QuickChange Multi Site-Directed Mutagenesis Kit (Stratagene, La Jolla, Calif.). […] For oocyte expression, Kv3.4 was in pBF1, Kv4.2 was in pRAT. cRNA transcripts were produced from SacII-linearized (Kv2.1), Mlullinearized (Kv3.4) and Not1-linearized (Kv4.2) DNA templates using the T3 (Kv2.1), SP6 (Kv3.4) and T7 (Kv4.2) mMessage mMachine kits (Ambion, Austin, Tex.). cRNA was quantified by spectrophotometry and its size integrity verified by gel electophoresis. Defolliculated stage V and VI Xenopus laevis oocytes (purchased from Nasco, Grand Island, N.Y.) were injected with 5 ng of cRNA encoding Kv2.1, Kv3.4 or Kv4.2. Chinese Hamster Ovary (CHO) cells were transfected with 0.25 μg Kv2.1 cDNA, 2 μg blank plasmid and 2 μg Green fluorescent Protein in pBOB using Supetfect transfection reagent (Qiagen) 24 hours before whole-cell voltage clamp studies.
Oocytes were bathed in a small-volume Warner oocyte bath and viewed with a Fisher dissection microscope. Bath solution for whole-cell oocyte recordings was (in mM): 96 NaCl, 4 KCl, 0.7 MgCl2, 1 CaCl2, 10 HEPES (pH 7.4); whole-cell oocyte TEVC pipettes were of 0.2-2 M resistance when filled with 3 M KCl. Experiments were performed 24-48 hours after cRNA injection. For assessment of current-voltage relationships in the absence or presence of dabco derivatives, oocytes were held at −80 mV, stepped for 2 seconds at voltages between −80 mV and +60 mV in 20 mV steps (Kv2.1) or between −80 and +50 mV in 10 mV steps (Kv3.4), then held for 500 ms at −40 mV before returning to the holding potential. For assessment of block during wash-in of dabco derivatives at a single voltage, oocytes were held at −80 mV, and repetitively stepped to 0 mV for 2 s with an interpulse interval of 10 s or 60 s as indicated. A range of concentrations of dabco or dabco derivatives were washed in via the bath solution during repetitive single-voltage pulses (after an initial period of 5 pulses with control solution to ensure current stabilization) until equilibrium block was achieved, to establish dose-responses. […] Washout was performed after the highest concentration of blocker was washed in. In cases where washout was achieved, only those recordings in which current returned to within 10% of original current level were used for construction of dose-response curves. […] As controls for this protection analysis, JC638.2a or MTSET were washed in alone until equilibrium block, then washed out.
Data analysis: Current-voltage relationships were obtained by measuring peak current during depolarizing pulses. Inhibition constants for DABCO blockers were calculated after generating a dose response curve by fitting with a logistic dose-response function y=A2+[A1−A2/1+(x/x0)^p], where A1 is the maximum response plateau, A2 is the minimum response plateau, x is drug concentrator, x0 is the IC50, and p the Hill slope. Data analysis was performed using […] 9 (Axon Instruments, Foster City, Calif.) and tabulated in Excel 5.0. Graphs were generated using Origin 6.1. Data are expressed as mean±SEM, with n specifying the number of independent experiments. Statistical significance was assessed by one-way ANOVA with p<0.05 being indicative of significance.

oocytes = test: Toxicity / nonspecific leak in oocytes during dose-response recording; format: cell-based, Xenopus laevis
Method: Whole-cell two-electrode voltage-clamp (TEVC) recordings were performed on X laevis oocytes expressing cloned Kv2.1, Kv3.4 or Kv4.2 using a Warner OC-725C amplifier and pClamp9 (Axon Instruments, Foster City, Calif.) software. Oocytes were bathed in a small-volume Warner oocyte bath and viewed with a Fisher dissection microscope. Bath solution for whole-cell oocyte recordings was (in mM): 96 NaCl, 4 KCl, 0.7 MgCl2, 1 CaCl2, 10 HEPES (pH 7.4); whole-cell oocyte TEVC pipettes were of 0.2-2 M resistance when filled with 3 M KCl. Experiments were performed 24-48 hours after cRNA injection. For assessment of current-voltage relationships in the absence or presence of dabco derivatives, oocytes were held at −80 mV, stepped for 2 seconds at voltages between −80 mV and +60 mV in 20 mV steps (Kv2.1) or between −80 and +50 mV in 10 mV steps (Kv3.4), then held for 500 ms at −40 mV before returning to the holding potential. For assessment of block during wash-in of dabco derivatives at a single voltage, oocytes were held at −80 mV, and repetitively stepped to 0 mV for 2 s with an interpulse interval of 10 s or 60 s as indicated. […]

SMILES: CCCCCCCCCCCC[N+]12CCN(CC1)CC2 [JE188, 1-aza-4-azonia-4-dodecylbicyclo[2.2.2]octane]
- inhibition of Kv3.4 (Kv3.4; 50 μM): significantly inhibited
- inhibition of Kv3.4 (Kv3.4; 250 μM): almost complete inhibition
- mean inhibition at 0 mV relative to +50 mV (Kv3.4): 2 fold

SMILES: CCCCCCCCCCCCCCCC[N+]12CCN(CC1)CC2 [TA279, 1-aza-4-azonia-4-hexadecylbicyclo[2.2.2]octane]
- inhibition of Kv3.4 (Kv3.4; 1 μM): inhibiting
- inhibition of Kv3.4 (Kv3.4; 5 mM): almost complete inhibition
- mean inhibition at 0 mV relative to +50 mV (Kv3.4): 1.5 fold
- sensitivity of Kv3.4 channels to compound relative to externally-applied TEA (Kv3.4; externally applied): 500 fold

SMILES: C(CC[N+]12CCN(CC1)CC2)C[N+]12CCN(CC1)CC2 [TG26]
- toxicity to oocytes (oocytes; doses required to produce >50% block): toxic to the oocytes

SMILES: C(CCCC[N+]12CCN(CC1)CC2)CCC[N+]12CCN(CC1)CC2 [TG27, 1,8-[bis(4-aza-1-azoniabicyclo[2.2.2]octanyl)]octane]
- concentration at which nonspecific leak began (oocytes; Kv3.4 dose response): above 1 mM
